The source of these data is ChEMBL document CHEMBL3507680, “University of Dundee, Gates Library screen for HepG2 cell viability”.

Structures are written as SMILES.

A short description of the data set: Human HepG2 cell viability assay in 384 well format. In kind it is toxicity, cell-based. Details: dose 125 nL, time 70.5 hour; concentration not given beside the values. The conditions noted are these: HepG2 cells, read-out: Inhibition.

With `CCN1CCC(NC(=O)CNC(C)Cn2cccn2)CC1` (stereo not drawn), the cytotoxicity at 70.5 h was 11.4%.

As to `Cn1cc(C(=O)N2CCN(c3ccccc3)CC2)ccc1=O`, the cytotoxicity at 70.5 h was -6.86%.

As for `CCCC(NC(=O)c1cc(C2CC2)[nH]n1)c1nnc2ccccn12` (stereo not drawn), the cytotoxicity at 70.5 h is -12.1%.

`Cc1cc(C)c(CNC(=O)NC2CCN(C(=O)C(C)C)CC2)c(C)c1`: the cytotoxicity at 70.5 h is -10.6%.

On to `CC(C)(C)NCC(=O)N1CCCC(n2ccnc2)C1` (stereo not drawn), for which the cytotoxicity at 70.5 h is -9.3%.

Take `Cc1cnn(CCNCc2nccn2CC(F)(F)F)c1`: the cytotoxicity at 70.5 h amounted to 1.15%.

Turning to `COc1ccc(C2(c3nc(-c4cnn(C)c4)no3)CCOCC2)cc1`, the cytotoxicity at 70.5 h is -3.48%.

On to `Cc1cnn(CC(C)NCC(=O)NC2CCOCC2)c1` (stereo not drawn), for which the cytotoxicity at 70.5 h stood at 18.5%.

With `CC(=O)Nc1ccc(CNC2COc3c2ccc(C)c3C)cc1` (stereo not drawn), the cytotoxicity at 70.5 h amounted to 15.7%.

For the compound `CCc1ccccc1CNC(=O)CNC(=O)C(C)(C)C`, the cytotoxicity at 70.5 h was -6.65%.

Consider `CN(c1cccnc1N1CCCC1)S(=O)(=O)c1cccs1`, for which the cytotoxicity at 70.5 h worked out at 12.7%.

For `O=C(C[S+]([O-])c1ccc(F)c(F)c1)NCc1cc(F)cc(F)c1` (stereo not drawn), the cytotoxicity at 70.5 h was -2.62%.

As for `COc1ccccc1[S+]([O-])CC(=O)NCc1cc(F)cc(F)c1` (stereo not drawn), the cytotoxicity at 70.5 h was found to be 2.23%.

As for `CC(C)c1nc(C(=O)N(C)c2ccc(Br)cn2)cs1`, the cytotoxicity at 70.5 h is -8.09%.

Regarding `COc1ccccc1NC(=O)CC(C)NCc1scnc1C` (stereo not drawn), the cytotoxicity at 70.5 h was -4.53%.

With `CC(C)c1ocnc1C(=O)N1CCC2(CC1)OCCO2`, the cytotoxicity at 70.5 h is -8.01%.

Regarding `CCOCCN(C)C(c1cccnc1)c1ccc(F)cc1F` (stereo not drawn), the cytotoxicity at 70.5 h was -3.04%.

For `CCC(CCNCc1cnc(C2CCC2)s1)N1CCCC1=O` (stereo not drawn), the cytotoxicity at 70.5 h was found to be 26.8%.

In the case of `O=C(OCc1cccs1)c1cccc(C(=O)N2CCCC2)n1`, the cytotoxicity at 70.5 h was -8.17%.

Take `Cc1nnc(CN2CCCC2c2ccc3c(c2)OCCO3)n1C` (stereo not drawn): the cytotoxicity at 70.5 h was -3.49%.

As to `CC(C)C(C)N(C)Cc1nnc(-c2ccc(Br)s2)o1` (stereo not drawn), the cytotoxicity at 70.5 h was -3%.

With `COCCOc1ccc(S(=O)(=O)Nc2cccnc2O)cc1C`, the cytotoxicity at 70.5 h was -4.13%.

As to `CC(C)(C)OC(=O)NCCC(=O)NCC(O)c1cccc(F)c1` (stereo not drawn), the cytotoxicity at 70.5 h was -0.447%.

Turning to `Cn1cnnc1CNC(=O)c1ccc(Br)cc1O`, the cytotoxicity at 70.5 h was -3.54%.

For the compound `COc1cc2nc(C)sc2cc1NC(=O)C(C)NC(N)=O` (stereo not drawn), the cytotoxicity at 70.5 h was 1.54%.

Regarding `COc1cc2nc(C)sc2cc1NC(=O)CN(C)C(C)C`, the cytotoxicity at 70.5 h was 4.08%.

`Cn1ccc2c(C(=O)NCC3(C(N)=O)CCOCC3)cccc21`: the cytotoxicity at 70.5 h was 1.25%.

As to `CNC(=O)NC(=O)CN(C)C(c1cccnc1)c1ccc(F)cc1F` (stereo not drawn), the cytotoxicity at 70.5 h was -1.87%.

Turning to `CCCC(=O)NC(Cc1ccc(C)cc1)c1ccccn1` (stereo not drawn), the cytotoxicity at 70.5 h was determined as 2.81%.

Take `Cc1ccc(CC(NC(=O)Cn2cnnn2)c2ccccn2)cc1` (stereo not drawn): the cytotoxicity at 70.5 h is -1.31%.

For the compound `CSCC(=O)NC(Cc1ccc(C)cc1)c1ccccn1` (stereo not drawn), the cytotoxicity at 70.5 h was 0.833%.

For `Cc1cc(C)n(C2CCCN(C(=O)CN(C)c3cnccn3)C2)n1` (stereo not drawn), the cytotoxicity at 70.5 h is -0.822%.

As for `O=C1NCCCC1NC(=O)C1(c2cccc(Cl)c2)CCC1` (stereo not drawn), the cytotoxicity at 70.5 h is -0.27%.

Regarding `CCCNC(=O)CCC(=O)Nc1cc2sc(C)nc2cc1OC`, the cytotoxicity at 70.5 h was 0.815%.

As to `O=C(OCCF)c1cccc(C(=O)N2CCCC2)n1`, the cytotoxicity at 70.5 h was 26.7%.

On to `Cc1ccc(CC(NC(=O)CN(C)C2CC2)c2ccccn2)cc1` (stereo not drawn), for which the cytotoxicity at 70.5 h is -1.04%.

In the case of `CCCn1nc(C(=O)N(C)Cc2nnc3n2CCC3)ccc1=O`, the cytotoxicity at 70.5 h is -6.95%.

Turning to `Cc1cnn(CCC(=O)NCc2ccc(N(C)C)c(C)c2)c1`, the cytotoxicity at 70.5 h is -5.29%.

With `COc1cccc(-c2cc(NCc3cscn3)n(C)n2)c1`, the cytotoxicity at 70.5 h was -7.72%.

Take `CCCN1CCC(NCc2cccc(CN3CCOC(C)C3)c2)CC1` (stereo not drawn): the cytotoxicity at 70.5 h was 27.7%.

`N#CCCN(CCC#N)C(=O)c1cccc(N2CCNC2=O)c1`: the cytotoxicity at 70.5 h was -7.77%.

For the compound `N#Cc1cccc(S(=O)(=O)NC2CCN(CC(F)(F)F)C2)c1` (stereo not drawn), the cytotoxicity at 70.5 h is -15.4%.

Take `Cc1cnn(C2CCCN(C(=O)c3cc(-c4ccccc4C)n[nH]3)C2)c1` (stereo not drawn): the cytotoxicity at 70.5 h was 9.61%.

With `Cn1ccnc1CN1CCN(Cc2cc(-c3ccccc3)no2)CC1`, the cytotoxicity at 70.5 h is -16.7%.

On to `Cn1cnnc1C1CCN(c2nc3ccccc3o2)CC1`, for which the cytotoxicity at 70.5 h is -5.83%.

Regarding `COc1ccc(C2CCN(S(=O)(=O)CCCC#N)CC2)cc1`, the cytotoxicity at 70.5 h was -9.02%.

`CCCS(=O)(=O)N1CCC(c2ccc(OC)cc2)CC1`: the cytotoxicity at 70.5 h is -5.25%.

In the case of `CC(=O)c1sc(C(NC(=O)c2ccccc2)C2CC2)nc1C` (stereo not drawn), the cytotoxicity at 70.5 h amounted to 8.83%.

As to `Cc1ccccc1C(NC(=O)CCCS(C)(=O)=O)C(C)(C)C` (stereo not drawn), the cytotoxicity at 70.5 h came out at 14.3%.

For the compound `Cc1nc(C)c(C(=O)N2CCCc3c(F)cccc32)o1`, the cytotoxicity at 70.5 h is -5.01%.

`Cc1nc(C)c(C(=O)N2CCc3c(C)cccc32)o1`: the cytotoxicity at 70.5 h is -5.23%.

Take `Cc1nc(C)c(C(=O)N2CCc3c(Cl)cccc32)o1`: the cytotoxicity at 70.5 h is 1.38%.

Turning to `COC(=O)c1ccc(Cn2cccc(C(F)(F)F)c2=O)c(OC)c1`, the cytotoxicity at 70.5 h is 21.6%.

`CC(C)N(CC(=O)Nc1cccc(C(=O)N(C)C)c1)C1CC1`: the cytotoxicity at 70.5 h came out at 7.53%.

As for `COc1ccc(CCN2CCCC(n3cncn3)C2)cc1` (stereo not drawn), the cytotoxicity at 70.5 h was -10.1%.

For the compound `CC1CN(C)CCN1C(=O)c1cccn1Cc1ccncc1` (stereo not drawn), the cytotoxicity at 70.5 h is -0.0265%.

Consider `CN(C)c1ncccc1NC(=O)COC1CCCC1`, for which the cytotoxicity at 70.5 h was -5.74%.

As to `CC1CN(Cc2cccc(CNC3CCCC3)c2)CCO1` (stereo not drawn), the cytotoxicity at 70.5 h worked out at 12.8%.

For `CN(C)c1ncccc1NC(=O)COCC1CC1`, the cytotoxicity at 70.5 h was -9.25%.

`FC(F)(F)Oc1ccc(CN2CCCC(n3cncn3)C2)cc1` (stereo not drawn): the cytotoxicity at 70.5 h is -10.6%.

For the compound `Cc1nc(CN(C)S(=O)(=O)c2ccccc2C(F)(F)F)no1`, the cytotoxicity at 70.5 h was -5.33%.

Take `COc1cccnc1NC(=O)COC1CCCC1`: the cytotoxicity at 70.5 h stood at 24.8%.

With `Cc1noc(C(C)N2CCN(Cc3noc(C4CC4)n3)CC2)n1` (stereo not drawn), the cytotoxicity at 70.5 h is -8.62%.

Regarding `Cc1ccc(C(NC(=O)CCNC(=O)c2ccoc2)C(F)(F)F)cc1` (stereo not drawn), the cytotoxicity at 70.5 h is -0.123%.

Consider `O=C(c1csnn1)N1CCc2ccccc21`, for which the cytotoxicity at 70.5 h was 2.68%.

As to `Cc1ncc2c(n1)CCN(Cc1nc(Cc3ccccc3)no1)C2`, the cytotoxicity at 70.5 h was determined as 1.16%.

With `Cc1nn(-c2ccccc2)c(C)c1CC(=O)NC1CC(=O)N(C)C1` (stereo not drawn), the cytotoxicity at 70.5 h is -7.27%.

Consider `COc1ccc(C)cc1CN1CCN(Cc2nccn2C)CC1`, for which the cytotoxicity at 70.5 h worked out at 1.89%.

Take `FC(F)(F)Sc1ccccc1NCc1nc(C2CC2)no1`: the cytotoxicity at 70.5 h turned out to be 16.7%.

In the case of `COc1ccc(C)cc1CN1CCN(Cc2nccn2C)C(C)C1` (stereo not drawn), the cytotoxicity at 70.5 h was 7.41%.

`CCC(CC)(CNC(=O)OC(C)(C)C)NC(=O)C1CCOCC1`: the cytotoxicity at 70.5 h is -5.37%.

On to `O=C(NS(=O)(=O)c1cccc(C(F)(F)F)c1)c1cscn1`, for which the cytotoxicity at 70.5 h is -10.3%.

For `CCC(CC)(CNC(=O)OC(C)(C)C)NC(=O)C1CC1`, the cytotoxicity at 70.5 h turned out to be 16.7%.

`COc1cc(CNC2CCCN(c3cccnn3)C2)cc2c1OCO2` (stereo not drawn): the cytotoxicity at 70.5 h was -3.66%.

Consider `Cc1cnn(CCNC(C)C(=O)Nc2ccc(Cl)cn2)c1` (stereo not drawn), for which the cytotoxicity at 70.5 h was -9.14%.

Take `Cc1cnn(CCNCC(=O)Nc2ccc(Cl)cn2)c1`: the cytotoxicity at 70.5 h was -0.0591%.

As to `Cc1cc(CNC(=O)NCC(O)c2cccc(C(F)(F)F)c2)no1` (stereo not drawn), the cytotoxicity at 70.5 h came out at 1.91%.

Turning to `COCCNC(=O)NC(c1ccccc1)c1ccccc1OC` (stereo not drawn), the cytotoxicity at 70.5 h was -3.63%.

In the case of `CSc1ccc(NCC(=O)NCC2CC2)cc1F`, the cytotoxicity at 70.5 h was -3.73%.

With `COC(=O)c1cc(NC2CCN(CC(F)(F)F)C2=O)ccc1C` (stereo not drawn), the cytotoxicity at 70.5 h is -1.18%.

Take `CC(=O)N(Cc1ncc(C)o1)C1CCN(Cc2cnc(C)s2)C1` (stereo not drawn): the cytotoxicity at 70.5 h is -6.82%.

For the compound `CN(C)C(CNC(=O)NCCS(C)(=O)=O)c1ccco1` (stereo not drawn), the cytotoxicity at 70.5 h was -4.23%.

Turning to `CC(=O)N(Cc1ncc(C)o1)C1CCN(CCn2cccn2)C1` (stereo not drawn), the cytotoxicity at 70.5 h is 9.96%.

On to `CCN(C(=O)CN1CCn2c(C)nnc2C1)C1=CCCCC1`, for which the cytotoxicity at 70.5 h is -17%.

For `CCN(C(=O)CN1CCn2c(nnc2C2CC2)C1)C1=CCCCC1`, the cytotoxicity at 70.5 h was -14.8%.

Consider `O=C(NCc1cccnc1-n1cncn1)c1ccncc1`, for which the cytotoxicity at 70.5 h is -4.72%.

As to `O=S(=O)(c1c(F)cccc1F)N1CCCC1c1nnc2n1CCCCC2` (stereo not drawn), the cytotoxicity at 70.5 h is -12.1%.

With `O=C(CCn1ccccc1=O)Nc1ccc(C(=O)O)cc1`, the cytotoxicity at 70.5 h is -4.88%.

For the compound `Cn1nnnc1SC1CCCN(c2cccc(F)c2)C1=O` (stereo not drawn), the cytotoxicity at 70.5 h stood at 19.4%.

`CCc1nnc(SC2CCCN(c3cccc(F)c3)C2=O)n1C` (stereo not drawn): the cytotoxicity at 70.5 h is -8.7%.

Regarding `CN1CCN(CC(NCc2cccc(O)c2)c2ccccc2)CC1` (stereo not drawn), the cytotoxicity at 70.5 h was -5.45%.

Consider `CCn1cc(NC(=O)C2CCN(Cc3ccccc3)CC2)cn1`, for which the cytotoxicity at 70.5 h worked out at 2.21%.

In the case of `COc1ccc2oc(C(C)NC(=O)NCC(C)(C)C(N)=O)c(C)c2c1` (stereo not drawn), the cytotoxicity at 70.5 h was 23.4%.

With `CCCN(C(=O)CN1CCn2c(nnc2C2CC2)C1)C1=CCCCC1`, the cytotoxicity at 70.5 h is -13.5%.

For `Cc1cc(C)n(-c2cncc(NCCC(=O)NC(C)C)n2)n1`, the cytotoxicity at 70.5 h is -10.2%.

On to `Cc1cccc2nc(CNC(=O)N3CCC(OCC4CC4)CC3)cn12`, for which the cytotoxicity at 70.5 h was 24.4%.

On to `O=C(Nc1nc(-c2ccccc2)ns1)N1CC[C@H](O)C1`, for which the cytotoxicity at 70.5 h was -9.25%.

`CNC(=O)CC1CCN(C(=O)NCc2cn3c(C)cccc3n2)CC1`: the cytotoxicity at 70.5 h was -14.3%.

On to `FC(F)(F)C1CCc2nnc(CNCc3cccs3)n2C1` (stereo not drawn), for which the cytotoxicity at 70.5 h stood at 24.7%.

As to `CCn1cc(NC(=O)C2CCN(Cc3nc(C)c(C)s3)CC2)cn1`, the cytotoxicity at 70.5 h is -5.47%.

As for `O=C(c1cn(-c2cccc(Cl)c2F)nn1)N1CCCSCC1`, the cytotoxicity at 70.5 h is -13.2%.

For the compound `Cc1cnc(CN(C)Cc2cc3c(cc2OC(F)F)OCO3)o1`, the cytotoxicity at 70.5 h was found to be 0.766%.

On to `Cc1cc(CN(C)S(=O)(=O)N2CCCC2c2ccc(C)o2)no1` (stereo not drawn), for which the cytotoxicity at 70.5 h was -9.33%.
